Experiments:
Format in all cases: in vivo, human
[1] = system: muscular pain; assay: Experimental muscular pain (pressure, electrical stimuli in muscle) in healthy volunteers; conditions: for analgesic effect in muscle versus placebo: oral solution, morphine 30 mg, oxycodone 15 mg, FIG. 1
Source text: (§1) The experimental studies referred to below, are based on a comparison of different drugs at healthy volunteers by applying experimental pain, since clinical studies provide insufficient information, partly due to the great difference that exists between patients and partly due to the fact that most diseases produce many symptoms other than pain, which affects the assessment of pain-killing efficacy. Experimental pain can be administered under controlled conditions in healthy volunteers so that this bias can be avoided. However, several experimental stimuli are necessary to simulate the complex clinical situation. It is also necessary to use different opioids to obtain sufficient differentiated knowledge about deep pain on different pain mechanisms, and an assessment of the clinical action spectrum of opioids. For testing the efficacy of different opioids for treating visceral pain a standardized test battery of cutaneous, muscular and visceral stimuli was applied. Blood samples were taken for determination of the opioid concentration in plasma.
In recent years methods by which deep and visceral stimuli can be administered reproducibly have been developed. These methods allow activation of the pain system with different stimuli, with the possibility of activating various types of nerve pathways in the same experiment. In the trial described herein the efficacy of different opioids on different types of stimuli of skin, muscles and bowel in healthy volunteers have been compared. Cutaneous and muscular pain was administered by pressure, current and temperature (skin only). The stimulation of the internal organs was also produced by pressure via a balloon located at the bottom of the oesophagus. The balloon can be distended and produce mechanical stimuli, which feel like mild pain/discomfort. In addition, cold and heat stimuli can be administered by passing water of differing temperature through the balloon. […]

[2] = system: visceral pain; assay: Experimental visceral pain, mechanical stimulation of the oesophagus via balloon distension, in healthy volunteers
Source text: as §1
(§2) In recent years methods by which deep and visceral stimuli can be administered reproducibly have been developed. These methods allow activation of the pain system with different stimuli, with the possibility of activating various types of nerve pathways in the same experiment. […]

[3] = system: visceral pain; assay: Experimental visceral pain, heat stimulation of the oesophagus via hot water into the balloon, in healthy volunteers
Source text: as §1, §2

[4] = system: cutaneous pain; assay: Experimental cutaneous pain (pressure, electrical, thermal stimuli on skin) in healthy volunteers
Source text: as §1, §2

[5] = oral, morphine 30 mg vs oxycodone 15 mg, all modalities tested
[6] = oral oxycodone 15 mg vs morphine 30 mg and placebo, FIG. 2

| SMILES | analgesic effect in muscle versus placebo [1] | analgesic effect against mechanical stimulation in viscera (oesophagus), in comparison to placebo ([2]; oral morphine 30 mg vs placebo) | analgesic effect against heat pain stimulation in viscera (oesophagus), in comparison to placebo ([3]; oral morphine 30 mg vs placebo) | analgesic effect in the skin versus placebo ([4]; oral solution, morphine 30 mg, oxycodone 15 mg, FIG. 1) | difference in analgesic effect between morphine and oxycodone in the skin [4, 5] | difference in analgesic effect between morphine and oxycodone in muscle [1, 5] | analgesic effect against mechanical stimulation in viscera (oesophagus), in comparison to morphine and placebo [2, 6] | analgesia against heat pain stimulation in viscera (oesophagus), in comparison to morphine and placebo [3, 6] |
| --- | --- | --- | --- | --- | --- | --- | --- | --- |
| CN1CC[C@]23c4c5ccc(O)c4O[C@H]2[C@@H](O)C=C[C@H]3[C@H]1C5 [morphine] | significantly more analgesic than placebo | a certain analgesic effect | a certain analgesic effect |  |  |  |  |  |
| COc1ccc2c3c1O[C@H]1C(=O)CC[C@@]4(O)[C@@H](C2)N(C)CC[C@]314 [oxycodone] | significantly more analgesic than placebo |  |  | significantly more analgesic than placebo | no significant difference between morphine and oxycodone | no significant difference between morphine and oxycodone | significantly better analgesic effect | significantly greater analgesia |
